# Assay results taken from PubChem BioAssay AID1963429 (Molecular Pharmacology Branch, DTP, NCI, 2024).
# System: 126254-015-R-J1-PDC complex spheroid growth, % test/control
# Test: Anticancer human tumor 126254-015-R-J1-PDC patient-derived soft tissue sarcoma cell line growth inhibition [Asc]
# Settings: for IC50: curve of first compound; for viability, T/C: stronger effect = lower value
# Summary of the method: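 Complex solid-tumor spheroids incorporating human endothelial and mesenchymal stem cells received single agents or combinations over half-log dilution ranges anchored to clinical Cmax.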
# 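Also: spheroids exposed to compound for seven days.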
# 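For viability, T/C in this document: 100% = DMSO vehicle control wells.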
smiles,measurement,setting,value
C=C(F)C(=O)N1CCN(c2nc(OCC3CCCN3C)nc3c2CCN(c2cccc4cccc(Cl)c24)C3)CC1CC#N (stereo not given) + Cc1c(S(C)(=O)=O)c(-c2cc(F)cc(N3CCN(c4ccc(NS(=O)(=O)c5ccc(NC(CCN6CCC(C(=O)OCCCP(=O)(O)O)CC6)CSc6ccccc6)c(S(=O)(=O)C(F)(F)F)c5)cc4)CC3)c2)c(-c2ccc(Cl)cc2)n1C(C)C,IC50,second compound 0.1 µM,1.86 µM
same,IC50,second compound 0.316 µM,1.39 µM
same,IC50,second compound 1 µM,1.36 µM
same,IC50,second compound 3.16 µM,0.772 µM
same,IC50,second compound 10 µM,1.39 µM
same,"viability, T/C","second compound 0.1 µM, first compound 0.0316 µM",87.2%
same,"viability, T/C","second compound 0.1 µM, first compound 0.1 µM",97.2%
same,"viability, T/C","second compound 0.1 µM, first compound 0.316 µM",89.6%
same,"viability, T/C","second compound 0.1 µM, first compound 1 µM",76.5%
same,"viability, T/C","second compound 0.1 µM, first compound 3.16 µM",27.4%
same,"viability, T/C","second compound 0.1 µM, first compound 10 µM",0.18%
same,"viability, T/C","second compound 0.316 µM, first compound 0.0316 µM",83%
same,"viability, T/C","second compound 0.316 µM, first compound 0.1 µM",91.2%
same,"viability, T/C","second compound 0.316 µM, first compound 0.316 µM",80.2%
same,"viability, T/C","second compound 0.316 µM, first compound 1 µM",61%
same,"viability, T/C","second compound 0.316 µM, first compound 3.16 µM",22.8%
same,"viability, T/C","second compound 0.316 µM, first compound 10 µM",0.13%
same,"viability, T/C","second compound 1 µM, first compound 0.0316 µM",83.5%
same,"viability, T/C","second compound 1 µM, first compound 0.1 µM",66.3%
same,"viability, T/C","second compound 1 µM, first compound 0.316 µM",76.3%
same,"viability, T/C","second compound 1 µM, first compound 1 µM",57.7%
same,"viability, T/C","second compound 1 µM, first compound 3.16 µM",27.2%
same,"viability, T/C","second compound 1 µM, first compound 10 µM",0.14%
same,"viability, T/C","second compound 3.16 µM, first compound 0.0316 µM",88.3%
same,"viability, T/C","second compound 3.16 µM, first compound 0.1 µM",75%
same,"viability, T/C","second compound 3.16 µM, first compound 0.316 µM",61.5%
same,"viability, T/C","second compound 3.16 µM, first compound 1 µM",51.7%
same,"viability, T/C","second compound 3.16 µM, first compound 3.16 µM",20.5%
same,"viability, T/C","second compound 3.16 µM, first compound 10 µM",0.13%
same,"viability, T/C","second compound 10 µM, first compound 0.0316 µM",79.2%
same,"viability, T/C","second compound 10 µM, first compound 0.1 µM",77.5%
same,"viability, T/C","second compound 10 µM, first compound 0.316 µM",77.8%
same,"viability, T/C","second compound 10 µM, first compound 1 µM",62.4%
same,"viability, T/C","second compound 10 µM, first compound 3.16 µM",18.5%
same,"viability, T/C","second compound 10 µM, first compound 10 µM",0.2%
CCN1C(C(=O)NC23CCC(C(=O)O)(CC2)CC3)C(c2cccc(Cl)c2F)C2(C(=O)Nc3cc(Cl)ccc32)C12CCCCC2 (stereo not given) + Cc1c(S(C)(=O)=O)c(-c2cc(F)cc(N3CCN(c4ccc(NS(=O)(=O)c5ccc(NC(CCN6CCC(C(=O)OCCCP(=O)(O)O)CC6)CSc6ccccc6)c(S(=O)(=O)C(F)(F)F)c5)cc4)CC3)c2)c(-c2ccc(Cl)cc2)n1C(C)C,IC50,second compound 0.1 µM,> 3 µM
same,IC50,second compound 0.316 µM,> 3 µM
same,IC50,second compound 1 µM,> 3 µM
same,IC50,second compound 3.16 µM,> 3 µM
same,IC50,second compound 10 µM,> 3 µM
same,"viability, T/C","second compound 0.1 µM, first compound 0.00949 µM",90.7%
same,"viability, T/C","second compound 0.1 µM, first compound 0.03 µM",85.1%
same,"viability, T/C","second compound 0.1 µM, first compound 0.0949 µM",91.7%
same,"viability, T/C","second compound 0.1 µM, first compound 0.3 µM",88.6%
same,"viability, T/C","second compound 0.1 µM, first compound 0.949 µM",93.9%
same,"viability, T/C","second compound 0.1 µM, first compound 3 µM",88.3%
same,"viability, T/C","second compound 0.316 µM, first compound 0.00949 µM",83.3%
same,"viability, T/C","second compound 0.316 µM, first compound 0.03 µM",82.4%
same,"viability, T/C","second compound 0.316 µM, first compound 0.0949 µM",81.9%
same,"viability, T/C","second compound 0.316 µM, first compound 0.3 µM",79.7%
same,"viability, T/C","second compound 0.316 µM, first compound 0.949 µM",74.9%
same,"viability, T/C","second compound 0.316 µM, first compound 3 µM",76.9%
same,"viability, T/C","second compound 1 µM, first compound 0.00949 µM",86.1%
same,"viability, T/C","second compound 1 µM, first compound 0.03 µM",84.4%
same,"viability, T/C","second compound 1 µM, first compound 0.0949 µM",87.1%
same,"viability, T/C","second compound 1 µM, first compound 0.3 µM",79.4%
same,"viability, T/C","second compound 1 µM, first compound 0.949 µM",82.7%
same,"viability, T/C","second compound 1 µM, first compound 3 µM",71.4%
same,"viability, T/C","second compound 3.16 µM, first compound 0.00949 µM",76%
same,"viability, T/C","second compound 3.16 µM, first compound 0.03 µM",83.8%
same,"viability, T/C","second compound 3.16 µM, first compound 0.0949 µM",77.2%
same,"viability, T/C","second compound 3.16 µM, first compound 0.3 µM",78.7%
same,"viability, T/C","second compound 3.16 µM, first compound 0.949 µM",81.3%
same,"viability, T/C","second compound 3.16 µM, first compound 3 µM",70.5%
same,"viability, T/C","second compound 10 µM, first compound 0.00949 µM",82.3%
same,"viability, T/C","second compound 10 µM, first compound 0.03 µM",86.5%
same,"viability, T/C","second compound 10 µM, first compound 0.0949 µM",88.8%
same,"viability, T/C","second compound 10 µM, first compound 0.3 µM",82.5%
same,"viability, T/C","second compound 10 µM, first compound 0.949 µM",75.5%
same,"viability, T/C","second compound 10 µM, first compound 3 µM",72.2%
